The results in this text go back to patent US11820760B2, “Crystalline polymorphs of Bruton's tyrosine kinase inhibitors” (BIOGEN MA INC., priority 2018, dated 2023).

What all share (assay type): physicochemical
A short description of series [1]: Variable temperature powder X-ray diffraction (VT-PXRD) of crystalline forms. On the procedure: Crystallinity of the compound was studied using a XRD-D8 X-ray powder diffractometer using Cu Ka radiation (Bruker, Madison, Wis.). The instrument is equipped with a long fine focus X-ray tube. The tube voltage and amperage were set to 40 kV and 40 mA, respectively. The divergence and scattering slits were set at 1° and the receiving slit was set at 0.15 mm. Diffracted radiation was detected by a Lynxeye detector. A θ-2θ continuous scan at 1.6°/min from 3 to 42° 2θ was used. The sample was prepared for analysis by placing it on a zero background plate. Variable temperature powder X-ray diffraction (VT-PXRD) of Form B was performed by hearing a sample of Form B to 130° C. under N2, following by cooling back down to 30° C. […] (losing all water at this temperature) under N2, indicating Form B is a hygroscopic anhydrate. Variable temperature powder X-ray diffraction (VT-PXRD) of Form C was performed. A sample of Form C was dehydrated by purging the sample under N2 at 30° C. for 20 minutes and then heated to 100° C. under N2 followed by cooling back down to 30° C. and exposed to air for 20 minutes.

Series [2] is described as follows: PXRD comparison of Form H before and after heating. Conditions: heated to 125° C. On the procedure:
Crystallinity of the compound was studied using a XRD-D8 X-ray powder diffractometer using Cu Ka radiation (Bruker, Madison, Wis.). The instrument is equipped with a long fine focus X-ray tube. The tube voltage and amperage were set to 40 kV and 40 mA, respectively. The divergence and scattering slits were set at 1° and the receiving slit was set at 0.15 mm. Diffracted radiation was detected by a Lynxeye detector. A θ-2θ continuous scan at 1.6°/min from 3 to 42° 2θ was used. The sample was prepared for analysis by placing it on a zero background plate. A sample of Form H was heated to 125° C. and PXRD pattern was compared with PXRD pattern for the sample before heating.

Series [3] can be described thus: PXRD of Form P after grinding in water. Conditions: Form P with 2.9 wt % water ground in water with mortar and pestle to a viscous slurry. How it is done:
Crystallinity of the compound was studied using a XRD-D8 X-ray powder diffractometer using Cu Ka radiation (Bruker, Madison, Wis.). The instrument is equipped with a long fine focus X-ray tube. The tube voltage and amperage were set to 40 kV and 40 mA, respectively. The divergence and scattering slits were set at 1° and the receiving slit was set at 0.15 mm. Diffracted radiation was detected by a Lynxeye detector. A θ-2θ continuous scan at 1.6°/min from 3 to 42° 2θ was used. The sample was prepared for analysis by placing it on a zero background plate. Crystalline Form P with 2.9 wt % of water were prepared using similar procedures as described in Method A. Dichloromethane (15V) and n-propyl acetate (35 V) were used as solvents and the DSC/TGA graph is shown in FIG. 25. Crystalline Form P with 2.9 wt % of water was ground in water using a mortar and pestle to produce a viscous slurry. The sample was rapidly prepared, covered with Kapton film and analyzed by PXRD.

As for `Cn1cc(Nc2nccc(-c3ccc4c(c3)CN(C3COC3)CC[C@H]4NC(=O)c3cn(C(C)(C)C)nn3)n2)cn1` [Form B, (R)-1-(tert-butyl)-N-(8-(2-((1-methyl-1H-pyrazol-4-yl)amino)pyrimidin-4-yl)-2-(oxetan-3-yl)-2,3,4,5-tetrahydro-1H-benzo[c]azepin-5-yl)-1H-1,2,3-triazole-4-carboxamide], the “form conversion after heating (VT-PXRD)” value in series [1] (heated to 130° C. under N2, then cooled back to 30° C.) was “No form conversion”.
In the case of `Cn1cc(Nc2nccc(-c3ccc4c(c3)CN(C3COC3)CC[C@H]4NC(=O)c3cn(C(C)(C)C)nn3)n2)cn1` [Form C, (R)-1-(tert-butyl)-N-(8-(2-((1-methyl-1H-pyrazol-4-yl)amino)pyrimidin-4-yl)-2-(oxetan-3-yl)-2,3,4,5-tetrahydro-1H-benzo[c]azepin-5-yl)-1H-1,2,3-triazole-4-carboxamide], the “form conversion after dehydration (VT-PXRD)” value in series [1] (purging with N2 for 20 minutes at 30° C.) is reported as “converted to Form L”.
Consider `Cn1cc(Nc2nccc(-c3ccc4c(c3)CN(C3COC3)CC[C@H]4NC(=O)c3cn(C(C)(C)C)nn3)n2)cn1` [Form H, (R)-1-(tert-butyl)-N-(8-(2-((1-methyl-1H-pyrazol-4-yl)amino)pyrimidin-4-yl)-2-(oxetan-3-yl)-2,3,4,5-tetrahydro-1H-benzo[c]azepin-5-yl)-1H-1,2,3-triazole-4-carboxamide], for which, in series [2], the “form conversion after heating (PXRD before/after)” value is “no form conversion”.
Take `Cn1cc(Nc2nccc(-c3ccc4c(c3)CN(C3COC3)CC[C@H]4NC(=O)c3cn(C(C)(C)C)nn3)n2)cn1` [Form L, (R)-1-(tert-butyl)-N-(8-(2-((1-methyl-1H-pyrazol-4-yl)amino)pyrimidin-4-yl)-2-(oxetan-3-yl)-2,3,4,5-tetrahydro-1H-benzo[c]azepin-5-yl)-1H-1,2,3-triazole-4-carboxamide]: the “form conversion after exposure to air (VT-PXRD)” value in series [1] (exposure to air for about 2.5 hours, re-absorbs water) was “converts back to Form C”.
In the case of `Cn1cc(Nc2nccc(-c3ccc4c(c3)CN(C3COC3)CC[C@H]4NC(=O)c3cn(C(C)(C)C)nn3)n2)cn1` [Form P, (R)-1-(tert-butyl)-N-(8-(2-((1-methyl-1H-pyrazol-4-yl)amino)pyrimidin-4-yl)-2-(oxetan-3-yl)-2,3,4,5-tetrahydro-1H-benzo[c]azepin-5-yl)-1H-1,2,3-triazole-4-carboxamide], the “PXRD peak shifts after grinding in water” value in series [3] is on record as “No peak shifts”.
